Test results reported in PubChem BioAssay (NCI).
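Each compound was tested at five concentrations against cells in 96-well plates for 48 hours. The concentration for full growth arrest is given as TGI.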

Columns and labels:
Assay in all cases: inhibition of tumour cell growth, NCI panel, 48 h
A549 NSCLC = test system: A549 NSCLC
DU-145 prostate = test system: DU-145 prostate
SK-MEL-2 melanoma = test system: SK-MEL-2 melanoma
CCRF-CEM leukemia = test system: CCRF-CEM leukemia
KM12 colon = test system: KM12 colon
SN12C renal = test system: SN12C renal
M14 melanoma = test system: M14 melanoma
MDA-N = test system: MDA-N
PC-3 prostate = test system: PC-3 prostate
OVCAR-5 ovarian = test system: OVCAR-5 ovarian
SK-MEL-28 melanoma = test system: SK-MEL-28 melanoma
MCF7 breast = test system: MCF7 breast
T-47D breast = test system: T-47D breast
UACC-257 melanoma = test system: UACC-257 melanoma
BT-549 breast = test system: BT-549 breast
ACHN renal = test system: ACHN renal
UACC-62 melanoma = test system: UACC-62 melanoma
SF-268 CNS = test system: SF-268 CNS
HOP-92 NSCLC = test system: HOP-92 NSCLC
K-562 leukemia = test system: K-562 leukemia
UO-31 renal = test system: UO-31 renal
SK-OV-3 ovarian = test system: SK-OV-3 ovarian
NCI/ADR-RES ovarian = test system: NCI/ADR-RES ovarian
MDA-MB-435 = test system: MDA-MB-435
SW-620 colon = test system: SW-620 colon
HS 578T breast = test system: HS 578T breast
HT29 colon = test system: HT29 colon
MOLT-4 leukemia = test system: MOLT-4 leukemia
RXF 393 renal = test system: RXF 393 renal
HCT-116 colon = test system: HCT-116 colon
NCI-H23 lung = test system: NCI-H23 lung
A498 renal = test system: A498 renal
TK-10 renal = test system: TK-10 renal
U251 CNS = test system: U251 CNS
NCI-H460 lung = test system: NCI-H460 lung
HCT-15 colon = test system: HCT-15 colon
LOX IMVI melanoma = test system: LOX IMVI melanoma
RPMI-8226 leukemia = test system: RPMI-8226 leukemia
NCI-H226 lung = test system: NCI-H226 lung
MDA-MB-231 breast = test system: MDA-MB-231 breast
SF-539 CNS = test system: SF-539 CNS
NCI-H522 lung = test system: NCI-H522 lung
OVCAR-8 ovarian = test system: OVCAR-8 ovarian
SNB-75 CNS = test system: SNB-75 CNS
OVCAR-3 ovarian = test system: OVCAR-3 ovarian
EKVX NSCLC = test system: EKVX NSCLC
SK-MEL-5 melanoma = test system: SK-MEL-5 melanoma
IGROV1 ovarian = test system: IGROV1 ovarian
CAKI-1 renal = test system: CAKI-1 renal
786-0 renal = test system: 786-0 renal
COLO 205 colon = test system: COLO 205 colon
HCC-2998 colon = test system: HCC-2998 colon
HOP-62 NSCLC = test system: HOP-62 NSCLC
SF-295 CNS = test system: SF-295 CNS
OVCAR-4 ovarian = test system: OVCAR-4 ovarian
HL-60(TB) leukemia = test system: HL-60(TB) leukemia
SNB-19 CNS = test system: SNB-19 CNS
MALME-3M melanoma = test system: MALME-3M melanoma

Measured: TGI

Nc1nc(N)c2nn(-c3ccc(C(=O)O)cc3)nc2n1
> 100 µM: A549 NSCLC | DU-145 prostate | SK-MEL-2 melanoma | CCRF-CEM leukemia | KM12 colon | SN12C renal | M14 melanoma | MDA-N | PC-3 prostate | OVCAR-5 ovarian | SK-MEL-28 melanoma | MCF7 breast | T-47D breast | UACC-257 melanoma | BT-549 breast | ACHN renal | UACC-62 melanoma | SF-268 CNS | HOP-92 NSCLC | K-562 leukemia | UO-31 renal | SK-OV-3 ovarian | NCI/ADR-RES ovarian | MDA-MB-435 | SW-620 colon | HS 578T breast | HT29 colon | MOLT-4 leukemia | RXF 393 renal | HCT-116 colon | NCI-H23 lung | A498 renal | TK-10 renal | U251 CNS | NCI-H460 lung | HCT-15 colon | LOX IMVI melanoma | RPMI-8226 leukemia | NCI-H226 lung | MDA-MB-231 breast | SF-539 CNS | NCI-H522 lung | OVCAR-8 ovarian | SNB-75 CNS | OVCAR-3 ovarian | EKVX NSCLC | SK-MEL-5 melanoma | IGROV1 ovarian | CAKI-1 renal | 786-0 renal | COLO 205 colon | HCC-2998 colon | HOP-62 NSCLC | SF-295 CNS | OVCAR-4 ovarian | HL-60(TB) leukemia | SNB-19 CNS

CCOC(=O)C1(C/C=C\CBr)CCCCCCC1=O (configuration not stated)
> 100 µM: A549 NSCLC | DU-145 prostate | SK-MEL-2 melanoma | CCRF-CEM leukemia | KM12 colon | SN12C renal | M14 melanoma | MDA-N | PC-3 prostate | OVCAR-5 ovarian | SK-MEL-28 melanoma | MCF7 breast | T-47D breast | UACC-257 melanoma | BT-549 breast | ACHN renal | UACC-62 melanoma | SF-268 CNS | UO-31 renal | SK-OV-3 ovarian | NCI/ADR-RES ovarian | MALME-3M melanoma | MDA-MB-435 | SW-620 colon | HS 578T breast | HT29 colon | MOLT-4 leukemia | RXF 393 renal | HCT-116 colon | NCI-H23 lung | A498 renal | TK-10 renal | U251 CNS | HCT-15 colon | LOX IMVI melanoma | NCI-H226 lung | MDA-MB-231 breast | SF-539 CNS | NCI-H522 lung | OVCAR-8 ovarian | SNB-75 CNS | EKVX NSCLC | SK-MEL-5 melanoma | IGROV1 ovarian | CAKI-1 renal | 786-0 renal | COLO 205 colon | HOP-62 NSCLC | SF-295 CNS | OVCAR-4 ovarian | HL-60(TB) leukemia | SNB-19 CNS

COc1cc2c(cc1C)NC(=O)/C2=C/c1c(Cl)n(C)c2ccccc12
72.7 µM: MOLT-4 leukemia
36.4 µM: OVCAR-5 ovarian
62.6 µM: SK-MEL-28 melanoma
19.6 µM: RXF 393 renal
25.7 µM: MCF7 breast | ACHN renal
19.3 µM: T-47D breast
20.1 µM: HCC-2998 colon
31.2 µM: COLO 205 colon
16.2 µM: SF-268 CNS
15.3 µM: OVCAR-3 ovarian
56.5 µM: SF-539 CNS
5.53 µM: MDA-N
> 100 µM: CCRF-CEM leukemia | K-562 leukemia | SW-620 colon | RPMI-8226 leukemia
33.3 µM: SN12C renal
29.5 µM: HOP-62 NSCLC
30.4 µM: SK-MEL-2 melanoma
38.6 µM: SNB-19 CNS
22.9 µM: UO-31 renal
16.6 µM: KM12 colon
8.94 µM: HL-60(TB) leukemia
42 µM: A549 NSCLC
24.6 µM: NCI/ADR-RES ovarian
29.4 µM: SF-295 CNS
20.5 µM: HCT-15 colon
22.5 µM: MALME-3M melanoma | HT29 colon
23.6 µM: DU-145 prostate
28 µM: U251 CNS
29.1 µM: NCI-H460 lung
17.1 µM: IGROV1 ovarian
65.1 µM: MDA-MB-231 breast
35.8 µM: OVCAR-8 ovarian
22 µM: SK-MEL-5 melanoma
28.1 µM: EKVX NSCLC
27.2 µM: NCI-H226 lung
21.9 µM: HCT-116 colon
3.69 µM: MDA-MB-435
29.6 µM: PC-3 prostate
24.4 µM: BT-549 breast | CAKI-1 renal
39.8 µM: SK-OV-3 ovarian
48.1 µM: M14 melanoma
12.8 µM: HS 578T breast
21.5 µM: A498 renal
26.8 µM: UACC-62 melanoma
21.6 µM: NCI-H23 lung
22.7 µM: LOX IMVI melanoma
34.7 µM: UACC-257 melanoma
13.4 µM: SNB-75 CNS
25 µM: OVCAR-4 ovarian
30.7 µM: TK-10 renal | 786-0 renal

COc1cc(NS(C)(=O)=O)ccc1N1Cc2cnc3ccc4[nH]ccc1c4c23
75.2 µM: SF-268 CNS
83.6 µM: T-47D breast
66.6 µM: SN12C renal
64.6 µM: SK-MEL-2 melanoma
75.8 µM: SK-MEL-5 melanoma
46.8 µM: RPMI-8226 leukemia
93.5 µM: NCI-H226 lung
92.4 µM: MDA-MB-231 breast
43.8 µM: NCI-H460 lung
> 100 µM: A549 NSCLC | DU-145 prostate | CCRF-CEM leukemia | KM12 colon | M14 melanoma | MDA-N | PC-3 prostate | OVCAR-5 ovarian | SK-MEL-28 melanoma | MCF7 breast | UACC-257 melanoma | BT-549 breast | ACHN renal | UACC-62 melanoma | HOP-92 NSCLC | K-562 leukemia | UO-31 renal | NCI/ADR-RES ovarian | MDA-MB-435 | SW-620 colon | HS 578T breast | HT29 colon | HCT-116 colon | NCI-H23 lung | A498 renal | TK-10 renal | U251 CNS | HCT-15 colon | NCI-H522 lung | OVCAR-8 ovarian | OVCAR-3 ovarian | EKVX NSCLC | IGROV1 ovarian | CAKI-1 renal | 786-0 renal | COLO 205 colon | HOP-62 NSCLC | SF-295 CNS | OVCAR-4 ovarian | HL-60(TB) leukemia | SNB-19 CNS
41.6 µM: LOX IMVI melanoma
62.5 µM: MOLT-4 leukemia
